Laboratory results taken from PMC9030691, “Toxicokinetics of β-Amanitin in Mice and In Vitro Drug–Drug Interaction Potential” (Pharmaceutics, 2022).
Where two headings read alike, the source gives them in different places.

Assays:
[1] = molecular target: T1, CYP2C8 (Homo sapiens, UniProt P10632); experiment: CYP2C8 inhibition in human liver microsomes; assay type: in vitro ADME; conditions: ultrapooled human liver microsomes 0.2 mg/mL, 2 μM amodiaquine, β-amanitin 0.1–100 μM, pH 7.4, 37 °C, 15 min, LC-MS/MS, n = 3, read-out: IC50, CYP2C8 amodiaquine N-deethylase
T1 construct: enzyme activities in HLMs were evaluated using LC-MS/MS and CYP substrates; from tissue; host or cells: ultrapooled human liver microsomes
T1 sequence (P10632 1-490): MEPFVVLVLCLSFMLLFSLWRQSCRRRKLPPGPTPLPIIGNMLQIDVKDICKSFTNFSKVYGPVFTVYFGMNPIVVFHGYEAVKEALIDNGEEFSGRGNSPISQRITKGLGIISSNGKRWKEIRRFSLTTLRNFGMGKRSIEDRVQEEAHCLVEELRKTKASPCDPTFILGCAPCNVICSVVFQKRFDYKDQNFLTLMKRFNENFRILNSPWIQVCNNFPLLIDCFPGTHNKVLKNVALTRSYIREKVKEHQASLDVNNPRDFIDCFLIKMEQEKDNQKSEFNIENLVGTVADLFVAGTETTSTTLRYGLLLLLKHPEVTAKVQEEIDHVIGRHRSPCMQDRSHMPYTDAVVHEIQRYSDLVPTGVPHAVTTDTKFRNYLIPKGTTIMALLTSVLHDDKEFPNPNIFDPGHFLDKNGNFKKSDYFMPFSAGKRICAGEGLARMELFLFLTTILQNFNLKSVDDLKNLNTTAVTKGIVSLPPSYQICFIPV
Procedure: (§1) β-amanitin inhibition (IC50 values) of CYP1A2, CYP2A6, CYP2B6, CYP2C8, CYP2C9, CYP2C19, CYP2D6, and CYP3A4 enzyme activities in HLMs were evaluated using LC-MS/MS and CYP substrates as previously described. Each incubation mixture was made up to a volume of 100 μL including HLMs (0.2 mg/mL), 50 mM potassium phosphate buffer (pH 7.4), 1.0 mM NADPH, 10 mM magnesium chloride, various concentrations of β-amanitin (0.1–100 μM), a cocktail of seven CYP probe substrates (50 μM phenacetin for CYP1A2, 2.5 μM coumarin for CYP2A6, 2 μM amodiaquine for CYP2C8, 10 μM diclofenac for CYP2C9, 100 μM [S]-mephenytoin for CYP2C19, 5 μM bufuralol for CYP2D6, and 2.5 μM midazolam for CYP3A4 in acetonitrile), or 50 μM bupropion for CYP2B6. The reactions were initiated with NADPH followed by incubation in a shaking water bath at 37 °C for 15 min with or without 30 min preincubation with NADPH. Reactions were stopped with 50 μL of ice-cold methanol containing ^13C2, ^15N-acetaminophen and d9-1′-hydroxybufuralol (ISs). Incubation mixtures were centrifuged at 13,000× g for 8 min at 4 °C. An aliquot (5 μL) of the supernatant from the reaction mixture was analyzed by the previous LC-MS/MS method.

[2] = molecular target: MATE2-K (Homo sapiens, UniProt Q86VL8); experiment: MATE2-K transport inhibition in HEK293-MATE2-K cells; assay type: in vitro ADME; set-up: host or cells: HEK293 (TransportoCells); conditions: 0.1 μM probe substrate, HBSS pH 7.4, β-amanitin 0.01–250 μM (methods), n = 3, read-out: IC50, MATE2-K-mediated [14C]metformin uptake
Procedure: β-amanitin inhibition (IC50 values) of OCT1, OCT2, MATE2-K, OAT1, OAT3, Na^+/taurocholate co-transporting polypeptide (NTCP), OATP1B1, OATP1B3, P-glycoprotein (P-gp), and breast-cancer-resistant protein (BCRP) transport activities were assessed in HEK293 cells overexpressing individual transporters (TransportoCells™, Corning), LLC-PK1-P-gp (Corning), or LLC-PK1-BCRP (obtained from Dr. A.H. Schinkel, Netherlands Cancer Institute; Amsterdam, The Netherlands), as previously reported. Each incubation mixture was prepared to a final volume of 100 μL HBSS (pH 7.4) containing 0.1 μM probe substrates ([^3H]methyl-4-phenylpyridinium for OCT1 and OCT2, [^14C]metformin for MATE2-K, [^3H]p-aminohippuric acid for OAT1, [^3H]estrone-3-sulfate for OAT3, OATP1B1 and BCRP, [^3H]taurocholate for NTCP, [^3H]17-β-D-estradiol-glucuronide for OATP1B3, [^3H]digoxin for P-gp) and various concentrations of β-amanitin (0.01–250 μM), as previously described.

[3] = molecular target: T2, CYP2B6 (Homo sapiens, UniProt P20813); experiment: CYP2B6 inhibition in human liver microsomes; assay type: in vitro ADME; conditions: ultrapooled human liver microsomes 0.2 mg/mL, 50 μM bupropion, β-amanitin 0.1–100 μM, pH 7.4, 37 °C, 15 min, LC-MS/MS, n = 3, read-out: IC50, CYP2B6 bupropion hydroxylase
T2 construct: from tissue; host or cells: ultrapooled human liver microsomes
T2 sequence (P20813 1-491): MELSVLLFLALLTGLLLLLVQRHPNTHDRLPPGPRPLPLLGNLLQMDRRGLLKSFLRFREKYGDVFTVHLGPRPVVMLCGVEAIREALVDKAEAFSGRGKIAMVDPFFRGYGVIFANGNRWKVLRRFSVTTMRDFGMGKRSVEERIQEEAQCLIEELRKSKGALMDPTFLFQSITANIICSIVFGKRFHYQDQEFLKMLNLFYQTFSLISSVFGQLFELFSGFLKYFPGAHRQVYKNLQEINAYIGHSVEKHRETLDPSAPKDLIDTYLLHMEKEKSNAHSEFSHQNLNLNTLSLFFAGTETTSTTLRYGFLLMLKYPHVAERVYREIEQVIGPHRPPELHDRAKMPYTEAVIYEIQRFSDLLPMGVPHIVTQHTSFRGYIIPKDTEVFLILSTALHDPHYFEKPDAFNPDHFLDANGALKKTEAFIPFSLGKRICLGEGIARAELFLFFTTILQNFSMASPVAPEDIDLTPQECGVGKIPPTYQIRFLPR
Procedure: as §1

[4] = molecular target: T3, CYP2D6 (Homo sapiens, UniProt P10635); experiment: CYP2D6 inhibition in human liver microsomes; assay type: in vitro ADME; conditions: ultrapooled human liver microsomes 0.2 mg/mL, 5 μM bufuralol, β-amanitin 0.1–100 μM, pH 7.4, 37 °C, 15 min, LC-MS/MS, n = 3, read-out: IC50, CYP2D6 bufuralol 1′-hydroxylase
T3 construct: from tissue; host or cells: ultrapooled human liver microsomes
Procedure: as §1

[5] = mice, oral administration at doses of 2, 5, or 10 mg/kg; cited from earlier work
Procedure: Amanita phalloides poisoning can cause acute hepatitis, leading to the rapid development of liver insufficiency and ultimately coma and death. Nephrotoxicity is reported less frequently. Yilmaz et al. reported that an oral intake of approximately 50 g of fresh Amanita phalloides, representing a dose of 0.32 mg/kg of amatoxins, can be lethal. A few reports are available that describe the toxicokinetics of α- and β-amanitin after the oral administration of toadstool extract to beagle dogs and rats. In addition, the toxicokinetics of α-amanitin were investi ...

[6] = with 30 min NADPH preincubation

T3 sequence (P10635 whole entry): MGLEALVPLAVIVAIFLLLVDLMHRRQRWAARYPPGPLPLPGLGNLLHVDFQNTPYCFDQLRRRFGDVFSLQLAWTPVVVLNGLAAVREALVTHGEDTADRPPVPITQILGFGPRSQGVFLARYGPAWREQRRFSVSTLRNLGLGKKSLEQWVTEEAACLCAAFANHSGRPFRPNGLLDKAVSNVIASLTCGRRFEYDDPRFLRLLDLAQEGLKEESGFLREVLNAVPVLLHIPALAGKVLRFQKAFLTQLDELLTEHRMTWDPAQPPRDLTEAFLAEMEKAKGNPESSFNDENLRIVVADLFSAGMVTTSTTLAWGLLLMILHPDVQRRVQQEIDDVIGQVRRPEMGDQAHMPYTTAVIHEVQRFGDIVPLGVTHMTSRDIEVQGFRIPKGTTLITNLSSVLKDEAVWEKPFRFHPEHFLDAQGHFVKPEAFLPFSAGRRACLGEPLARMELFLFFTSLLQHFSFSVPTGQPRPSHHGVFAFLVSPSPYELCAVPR
MATE2-K, sequence (Q86VL8 1-566 isoform Q86VL8-3): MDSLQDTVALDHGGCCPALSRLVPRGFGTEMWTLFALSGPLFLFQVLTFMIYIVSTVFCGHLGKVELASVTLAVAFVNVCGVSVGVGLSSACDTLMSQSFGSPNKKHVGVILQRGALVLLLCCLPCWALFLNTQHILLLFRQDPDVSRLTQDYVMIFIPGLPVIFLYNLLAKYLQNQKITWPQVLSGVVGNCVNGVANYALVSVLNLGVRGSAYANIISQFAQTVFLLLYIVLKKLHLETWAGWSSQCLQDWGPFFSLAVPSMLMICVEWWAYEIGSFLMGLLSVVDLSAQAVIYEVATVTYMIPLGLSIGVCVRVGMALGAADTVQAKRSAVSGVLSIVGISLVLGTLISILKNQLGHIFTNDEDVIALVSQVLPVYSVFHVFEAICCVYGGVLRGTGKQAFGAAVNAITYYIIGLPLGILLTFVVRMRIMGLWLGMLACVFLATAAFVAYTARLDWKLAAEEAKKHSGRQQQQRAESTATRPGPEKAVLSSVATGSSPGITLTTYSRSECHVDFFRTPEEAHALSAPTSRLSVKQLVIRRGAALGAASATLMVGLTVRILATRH

Compound: CC[C@H](C)[C@@H]1NC(=O)CNC(=O)[C@@H]2Cc3c([nH]c4cc(O)ccc34)[S@+]([O-])C[C@H](NC(=O)CNC1=O)C(=O)N[C@@H](CC(=O)O)C(=O)N1C[C@H](O)C[C@H]1C(=O)N[C@@H]([C@@H](C)[C@@H](O)CO)C(=O)N2 [β-amanitin]
- IC50 [1, 6]: > 100 µM
- IC50 ([1]; without NADPH preincubation): > 100 µM
- IC50 [2]: 2.1 µM
- IC50 [3, 6]: 34.8 µM
- IC50 ([3]; without NADPH preincubation): 38 µM
- IC50 [4, 6]: 71.6 µM
- IC50 ([4]; without NADPH preincubation): 76.2 µM

Compound: α-amanitin [reference compound]
- Absolute bioavailability [5]: 3.5–4.8%
